Laboratory results taken from publication PMC7249006, “Discovery of Novel Pyridazine-Based Cyclooxygenase-2 Inhibitors with a Promising Gastric Safety Profile” (Molecules, 2020).
“Also recorded” adds a separate entry of the source.

Experiments:
gastric mucosa = assay: Lipid peroxidation studies (MDA content of gastric mucosa, TBA method); details: gastric mucosa after the ulcerogenic activity test, 10 mg/kg orally
Method: A decrease in the MDA content is a measure to assess the non-ulcerogenic effect of a compound.
The obtained mixture was extracted with a 5-mL mixture (15:1 v/v) of n-butanol and pyridine and centrifuged at 4000 rpm for 10 min. […] A standard linear curve (absorbance vs. concentration in nM) was prepared using MDA tetrabutylammonium salt. The lipid peroxidation was calculated from the standard curve. The results are expressed as nmol MDA 100 mg^−1 tissues.

human COX-2 = target: T1, human COX-2 (Homo sapiens, UniProt P35354); assay: In vitro COX-2 inhibition assay (Cayman kit 560131, ELISA); assay type: biochemical; details: for SI (Selectivity index): IC50 for COX-1/IC50 for COX-2; for IC50: N = 3, Mean ± SD; for %SI: selectivity index normalized to celecoxib = 100%
T1 construct: purchased Cayman Chemicals 560131
T1 sequence (P35354 18-604): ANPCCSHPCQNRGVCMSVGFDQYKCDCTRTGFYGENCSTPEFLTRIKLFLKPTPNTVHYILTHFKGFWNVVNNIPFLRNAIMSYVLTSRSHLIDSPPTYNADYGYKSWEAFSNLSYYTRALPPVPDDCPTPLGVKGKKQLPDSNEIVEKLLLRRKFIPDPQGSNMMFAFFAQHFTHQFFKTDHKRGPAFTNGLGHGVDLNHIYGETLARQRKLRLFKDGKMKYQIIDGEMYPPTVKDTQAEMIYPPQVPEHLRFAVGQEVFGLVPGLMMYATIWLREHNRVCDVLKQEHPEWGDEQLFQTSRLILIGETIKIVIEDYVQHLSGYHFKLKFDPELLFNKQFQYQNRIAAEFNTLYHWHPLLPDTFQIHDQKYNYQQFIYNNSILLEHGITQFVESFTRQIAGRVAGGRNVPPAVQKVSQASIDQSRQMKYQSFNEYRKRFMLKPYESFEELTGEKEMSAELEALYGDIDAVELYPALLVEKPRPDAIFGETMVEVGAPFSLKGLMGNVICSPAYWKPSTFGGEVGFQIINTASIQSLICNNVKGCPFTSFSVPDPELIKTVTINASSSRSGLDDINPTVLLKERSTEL
Method: (§1) The supplier’s instructions were followed to prepare the reagents as well as to perform the experiment. Briefly, samples (20 μL), the COX-1 and COX-2 enzyme (10 μL), and heme (10 μL) were mixed with the buffer solution (160 μL), which was supplied with the kits. […] A saturated solution of stannous chloride (30 μL) was added after 2 min to halt the COX reaction. The resultant mixture was incubated at ambient temperature for 5 min. The Prostaglandin-2α (PGF2α) developed after the COX reaction was measured through ELISA. […] The plate was washed to get rid of the unbound components. […] The IC50 values of COX-1 and COX-2 were determined by the regression analysis.

[1] = target: T2, (Ovis aries, UniProt P05979); assay: In vitro COX-1 inhibition assay (Cayman kit 560131, ELISA); assay type: biochemical, human; details: N = 3, Mean ± SD
T2 construct: purchased Cayman Chemicals 560131
T2 sequence (P05979 25-600): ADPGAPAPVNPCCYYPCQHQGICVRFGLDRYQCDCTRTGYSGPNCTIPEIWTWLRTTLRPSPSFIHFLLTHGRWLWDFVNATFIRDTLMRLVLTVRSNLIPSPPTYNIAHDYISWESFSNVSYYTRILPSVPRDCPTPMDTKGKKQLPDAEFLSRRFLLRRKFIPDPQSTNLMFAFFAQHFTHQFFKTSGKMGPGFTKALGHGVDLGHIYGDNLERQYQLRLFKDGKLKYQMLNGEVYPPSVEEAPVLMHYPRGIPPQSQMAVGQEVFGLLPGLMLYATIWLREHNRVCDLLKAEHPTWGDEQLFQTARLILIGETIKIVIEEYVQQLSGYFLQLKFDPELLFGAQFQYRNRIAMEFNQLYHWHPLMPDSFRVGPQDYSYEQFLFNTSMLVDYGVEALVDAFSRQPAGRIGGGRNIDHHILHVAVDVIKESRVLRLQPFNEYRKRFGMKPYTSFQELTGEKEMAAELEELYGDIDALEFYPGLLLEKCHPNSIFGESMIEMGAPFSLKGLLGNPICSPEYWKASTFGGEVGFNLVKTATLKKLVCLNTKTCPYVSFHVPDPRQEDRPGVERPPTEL
Method: as §1

gastric ulcers in rats = assay: Gastric ulcerogenic activity; details: 10 mg/kg orally; for ulcerogenic effect (in words): rats; for Score: No of Gastric Ulcers / Score: Severity Lesions: rats fasted 18 h, sacrificed after 4 h, Mean ± SE
Method: A total of eight groups of rats were utilized, wherein each group comprised of six rats.
The eight groups of rats were fasted for 18 h, wherein each group consisted of 6 rats. […] Saline solution (1 mL) was given to the control group. The animals were sacrificed after 4 h to isolate their stomachs. A longitudinal cut was made along the greater curvature, and the presence of ulcers was evaluated. The counting of ulcers was marked as 0 (no ulcer) to 5 (≥ 3 ulcers) [30].

Row | Compound | SI (Selectivity index) (human COX-2) | IC50 (human COX-2) [nM] | %SI (human COX-2) [%] | IC50 [1] [nM] | melting point [°C] | MDA Content in nmol (100 mg Tissue) (gastric mucosa) | ulcerogenic effect (in words) (gastric ulcers in rats) | Score: No of Gastric Ulcers (gastric ulcers in rats) | Score: Severity Lesions (gastric ulcers in rats)
1 | Cc1ccc(-c2cc(C(F)(F)F)nn2-c2ccc(S(N)(=O)=O)cc2)cc1 [Celecoxib, celecoxib, reference compound] | – | – | – | – | – | 6.11 ± 0.50 nmol (100 mg Tissue) | – | – | –
2 | NN=Cc1ccc(-n2nc(-c3ccccc3)ccc2=O)cc1 [Compound 4a, 2-(4-(Hydrazineylidenemethyl)phenyl)-6-phenylpyridazin-3(2H)-one] | 8.97 | 26.2 ± 0.5 | 49.88 | 235 ± 0.11 | 235 to 236 | – | – | – | –
3 | O=C1CSC(NN=Cc2ccc(-n3nc(-c4ccccc4)ccc3=O)cc2)=N1 [Compound 6a, 2-(2-(4-(6-Oxo-3-phenylpyridazin-1(6H)-yl)benzylidene)hydrazineyl)thiazol-4(5H)-one] | 10.35 | 25.1 ± 0.15 | 57.56 | 260 ± 0.22 | 250 to 252 | – | – | – | –
4 | CC1SC(NN=Cc2ccc(-n3nc(-c4ccccc4)ccc3=O)cc2)=NC1=O (stereo not drawn) [Compound 6b, 5-Methyl-2-(2-(4-(6-oxo-3-phenylpyridazin-1(6H)-yl)benzylidene)hydrazineyl)thiazol-4(5H)-one] | 12.30 | 22.75 ± 0.1 | 68.40 | 280 ± 0.5 | 285 to 286 | – | – | – | –
5 | O=c1ccc(-c2ccccc2)nn1-c1ccc(C=NNc2nc(-c3ccccc3)cs2)cc1 [Compound 9a, 6-Phenyl-2-(4-((2-(4-phenylthiazol-2-yl)hydrazinylidene)methyl)phenyl)pyridazin-3(2H)-one] | – | 15.5 ± 0.55 | – | 330 ± 0.28 | 280 to 281 | 3.05 ± 0.12 nmol (100 mg Tissue) | No ulcerogenic effects; also recorded: did not produce any ulcerogenic impact; also recorded: devoid of any ulcerogenic effect | 0 | 0
6 | CN(C)C=C1SC(NN=Cc2ccc(-n3nc(-c4ccccc4)ccc3=O)cc2)=NC1=O [Compound 11, 5-((dimethylamino)methylene)-2-(2-(4-(6-oxo-3-phenylpyridazin-1(6H)-yl)benzylidene) hydrazineyl) thiazol-4(5H)-one] | 10.75 | 25.11 ± 0.11 | 59.78 | 270 ± 0.24 | – | – | – | – | –
7 | O=C1N=C(N/N=C/c2ccc(-n3nc(-c4ccccc4)ccc3=O)cc2)S/C1=C\c1ccc(Cl)cc1 [Compound 16a, 5-(4-Chlorobenzylidene)-2-(2-(4-(6-oxo-3-phenylpyridazin-1(6H)-yl)benzylidene)-hydra-zinyl)thiazol-4(5H)-one] | 12.40 | 22.2 ± 0.44 | 68.96 | 275 ± 0.1 | 297 to 298 | – | – | – | –
8 | COc1ccc(/C=C2\SC(N/N=C/c3ccc(-n4nc(-c5ccccc5)ccc4=O)cc3)=NC2=O)cc1 [Compound 16b, 5-(4-Methoxybenzylidene)-2-(2-(4-(6-oxo-3-phenylpyridazin-1(6H)-yl)benzylidene)hydra-zineyl)thiazol-4(5H)-one] | – | 16.9 ± 0.16 | – | 315 ± 0.33 | > 300 | 3.45 ± 0.28 nmol (100 mg Tissue) | insignificant ulcerogenic effects | 0.12 ± 0.30 | 0.18 ± 0.22
9 | COc1ccc2c(c1)c(CC(=O)O)c(C)n2C(=O)c1ccc(Cl)cc1 [Indomethacin, indomethacin, reference compound] | – | – | – | – | – | 8.90 ± 0.18 nmol (100 mg Tissue) | – | – | –

Further lines, with some results ahead:

Row | SI (Selectivity index) (human COX-2) | IC50 (human COX-2) [nM] | %SI (human COX-2) [%] | IC50 [1] [nM] | melting point [°C] | Compound | MDA Content in nmol (100 mg Tissue) (gastric mucosa) | ulcerogenic effect (in words) (gastric ulcers in rats) | Score: No of Gastric Ulcers (gastric ulcers in rats) | Score: Severity Lesions (gastric ulcers in rats)
10 | 10.33 | 24.18 ± 0.14 | 57.45 | 250 ± 0.12 | 245 to 246 | CCOC(=O)c1sc(N/N=C/c2ccc(-n3nc(-c4ccccc4)ccc3=O)cc2)nc1C [Compound 8, Ethyl 4-methyl-2-(2-(4-(6-oxo-3-phenylpyridazin-1(6H)-yl)benzylidene)hydrazineyl) thiazole-5-carboxylate] | – | – | – | –
11 | – | 17.5 ± 0.6 | – | 275 ± 0.42 | 261 to 262 | O=c1ccc(-c2ccccc2)nn1-c1ccc(C=NNc2nc(-c3ccc(Br)cc3)cs2)cc1 [Compound 9b, 2-(4-((2-(4-(4-Bromophenyl)thiazol-2-yl)hydrazineylidene)methyl)phenyl)-6-phenylpyridazin-3(2H)-one] | 3.89 ± 0.50 nmol (100 mg Tissue) | insignificant ulcerogenic effects | 0.33 ± 0.38 | 0.26 ± 0.16
12 | 12.89 | 22.1 ± 0.55 | 71.69 | 285 ± 0.15 | – | COC(=O)C=C1SC(=NN=Cc2ccc(-n3nc(-c4ccccc4)ccc3=O)cc2)NC1=O [Compound 10, Methyl2-(4-oxo-2-((4-(6-oxo-3-phenylpyridazin-1(6H)-yl)benzylidene)hydrazineylidene) -thiazolidin-5-ylidene)acetate] | – | – | – | –
13 | – | 17.1 ± 0.19 | – | 295 ± 0.28 | – | O=C1N=C(NN=Cc2ccc(-n3nc(-c4ccccc4)ccc3=O)cc2)SC1=C1C(=O)Nc2ccccc21 [Compound 12, 2-(2-(4-(6-oxo-3-phenylpyridazin-1(6H)-yl)benzylidene)hydrazineyl)-5-(2-oxoindolin-3-ylidene) thiazol-4(5H)-one] | 2.95 ± 0.44 nmol (100 mg Tissue) | No ulcerogenic effects; also recorded: did not produce any ulcerogenic impact; also recorded: devoid of any ulcerogenic effect | 0 | 0
14 | – | 17.7 ± 0.18 | – | 285 ± 0.16 | – | O=C1CSC(=NN=Cc2ccc(-n3nc(-c4ccccc4)ccc3=O)cc2)N1c1ccccc1 [Compound 17, 2-((4-(6-oxo-3-phenylpyridazin-1(6H)-yl)benzylidene)hydrazineylidene)-3-phenyl thiazolidin-4-one] | 4.11 ± 0.18 nmol (100 mg Tissue) | insignificant ulcerogenic effects | 0.42 ± 0.10 | 0.20 ± 0.50
15 | 11.01 | 23.1 ± 0.5 | 61.23 | 255 ± 0.2 | – | COC(=O)C=C1SC(=NN=Cc2ccc(-n3nc(-c4ccccc4)ccc3=O)cc2)N(c2ccccc2)C1=O [Compound 18, Methyl2-(4-oxo-2-((4-(6-oxo-3-phenylpyridazin-1(6H)-yl)benzylidene)hydrazinylidene) -3-phenylthiazolidin-5-ylidene)acetate] | – | – | – | –
